Data as given in PMC4055595, “Pharmacokinetic Compatibility of Ginsenosides and Schisandra Lignans in Shengmai-san: From the Perspective of P-Glycoprotein” (PLoS ONE, 2014).

Experiments:
Caco-2 cells = experiment: Uptake of digoxin and ginsenosides in Caco-2 cells; assay type: in vitro ADME, human; details: for Effect of verapamil on uptake: 10 µM verapamil; for Effect of SLE on intracellular concentration: SLE 2.0 and 10.0 µg/mL, P<0.01
Procedure: Caco-2 cells were purchased from American Type Culture Collection (Manassas, VA), and were routinely cultured in Dulbecco's modified Eagle's medium supplemented with 10% fetal bovine serum, 1% nonessential amino acids, 1 mM sodium pyruvate, and 100 U/mL penicillin and streptomycin (Invitrogen, Carlsbad, CA). The cells were grown in an atmosphere of 5% CO2 at 37°C, and cell medium was changed every other day. Cells were seeded at a density of 4×10^4 cells per well in 24-well microporous polycarbonate insert filter plates (0.4-µm pore size) (Corning Costar plates; Corning Life Sciences, Lowell, MA) and grown for 15 days in Caco-2 growth medium. The medium was replaced every 3 to 4 days. Before running the assay, the culture medium was replaced by HBSS buffer supplemented with 10 mM Hepes and 20 mM glucose.
Caco-2 cells were incubated with SLE (2.0 and 10.0 µg/mL) or verapamil (10 µM) for 1.0 h. Then the cells were washed with Hank's to discard SLE or verapamil before the addition of GE (100 µg/mL). The accumulation of ginsenosides lasted for 2 h, and the intracellular concentrations of ginsenosides were measured by LC/MS. All experiments were conducted in triplicate.

Caco-2 cell monolayer = experiment: Transport of digoxin and ginsenosides across Caco-2 cell monolayer (efflux ratio); assay type: in vitro ADME, human; details: for Effect of verapamil on efflux ratio: Caco-2 cells, 10 µM verapamil; for Effect of SLE on BL-AP transport / efflux ratio: Caco-2 monolayer, SLE 2.0 and 10.0 µg/mL
Outline: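 Caco-2 monolayers (18-21 days, TEER >600 Ω·cm²) preincubated 1.5 h at 37 °C in HBSS pH 7.4 with SLE (2.0 or 10.0 µg/mL) or 1% ethanol on both sides. GE (100 µg/mL) then added apical or basolateral for 2 h; ginsenosides in receiver by LC-MS. ER = Papp B→A / Papp A→B; verapamil 10 µM positive control.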

P-gp = tested on: P-gp; parameters: method as in PMID 16557452; details: Caco-2 cell monolayer; cited from earlier work

Row | Structure (SMILES) | Effect of verapamil on uptake (Caco-2 cells) | Effect of SLE on intracellular concentration (Caco-2 cells) | Effect of verapamil on efflux ratio (Caco-2 cell monolayer) | Effect of SLE on BL-AP transport / efflux ratio (Caco-2 cell monolayer) | Transport by P-gp (P-gp)
1 | CC(C)=CCC[C@](C)(O[C@@H]1O[C@H](CO[C@@H]2OC[C@H](O)[C@H](O)[C@H]2O)[C@@H](O)[C@H](O)[C@H]1O)[C@H]1CC[C@]2(C)[C@@H]1[C@H](O)C[C@@H]1[C@@]3(C)CC[C@H](O[C@@H]4O[C@H](CO)[C@@H](O)[C@H](O)[C@H]4O[C@@H]4O[C@H](CO)[C@@H](O)[C@H](O)[C@H]4O)C(C)(C)[C@@H]3CC[C@]12C [Rb2, ginsenoside Rb2] | significantly enhanced | concentration dependently increase | – | – | –
2 | C[C@H]1O[C@@H](O[C@H]2[C@@H](O)C[C@H](O[C@H]3[C@@H](O)C[C@H](O[C@H]4CC[C@@]5(C)[C@H](CC[C@@H]6[C@@H]5C[C@@H](O)[C@]5(C)[C@@H](C7=CC(=O)OC7)CC[C@]65O)C4)O[C@@H]3C)O[C@@H]2C)C[C@H](O)[C@@H]1O [Digoxin, digoxin, reference compound] | significantly enhanced | – | – | – | –
3 | CC(C)=CCC[C@](C)(O[C@@H]1O[C@H](CO[C@@H]2O[C@H](CO)[C@@H](O)[C@H](O)[C@H]2O)[C@@H](O)[C@H](O)[C@H]1O)[C@H]1CC[C@]2(C)[C@@H]1[C@H](O)C[C@@H]1[C@@]3(C)CC[C@H](O[C@@H]4O[C@H](CO)[C@@H](O)[C@H](O)[C@H]4O[C@@H]4O[C@H](CO)[C@@H](O)[C@H](O)[C@H]4O)C(C)(C)[C@@H]3CC[C@]12C [Rb1, ginsenoside Rb1] | significantly enhanced | concentration dependently increase | decreased significantly | concentration dependently decrease | not be transported by P-gp
4 | CC(C)=CCC[C@](C)(O[C@@H]1O[C@H](CO)[C@@H](O)[C@H](O)[C@H]1O)[C@H]1CC[C@]2(C)[C@@H]1[C@H](O)C[C@@H]1[C@@]3(C)CC[C@H](O[C@@H]4O[C@H](CO)[C@@H](O)[C@H](O)[C@H]4O[C@@H]4O[C@H](CO)[C@@H](O)[C@H](O)[C@H]4O)C(C)(C)[C@@H]3CC[C@]12C [Rd, ginsenoside Rd] | significantly enhanced | concentration dependently increase | decreased significantly | concentration dependently decrease | –
